Results reported in PubChem BioAssay (NCI).
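Following 48 hours of exposure in 96-well plates, responses at five concentrations were used to interpolate endpoints linearly. At the GI50, growth is halved. Definition used: TGI = concentration required for complete inhibition of growth.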

What was measured:
Test in all cases: NCI-60 cell line screen, 48 h
MCF7 breast = tested on: MCF7 breast
HCT-116 colon = tested on: HCT-116 colon
SF-295 CNS = tested on: SF-295 CNS
CAKI-1 renal = tested on: CAKI-1 renal
A549 NSCLC = tested on: A549 NSCLC
MALME-3M melanoma = tested on: MALME-3M melanoma
TK-10 renal = tested on: TK-10 renal
NCI-H522 lung = tested on: NCI-H522 lung
IGROV1 ovarian = tested on: IGROV1 ovarian
SNB-19 CNS = tested on: SNB-19 CNS
M14 melanoma = tested on: M14 melanoma
BT-549 breast = tested on: BT-549 breast
SK-MEL-5 melanoma = tested on: SK-MEL-5 melanoma
OVCAR-4 ovarian = tested on: OVCAR-4 ovarian
KM12 colon = tested on: KM12 colon
MDA-MB-231 breast = tested on: MDA-MB-231 breast
RPMI-8226 leukemia = tested on: RPMI-8226 leukemia
NCI/ADR-RES ovarian = tested on: NCI/ADR-RES ovarian
UACC-62 melanoma = tested on: UACC-62 melanoma
MDA-MB-435 = tested on: MDA-MB-435
DU-145 prostate = tested on: DU-145 prostate
SN12C renal = tested on: SN12C renal
HS 578T breast = tested on: HS 578T breast
SK-MEL-2 melanoma = tested on: SK-MEL-2 melanoma
UACC-257 melanoma = tested on: UACC-257 melanoma
NCI-H460 lung = tested on: NCI-H460 lung
786-0 renal = tested on: 786-0 renal
CCRF-CEM leukemia = tested on: CCRF-CEM leukemia
SW-620 colon = tested on: SW-620 colon
NCI-H226 lung = tested on: NCI-H226 lung
HT29 colon = tested on: HT29 colon
HCC-2998 colon = tested on: HCC-2998 colon
T-47D breast = tested on: T-47D breast
SF-268 CNS = tested on: SF-268 CNS
LOX IMVI melanoma = tested on: LOX IMVI melanoma
K-562 leukemia = tested on: K-562 leukemia
SR leukemia = tested on: SR leukemia
EKVX NSCLC = tested on: EKVX NSCLC
OVCAR-3 ovarian = tested on: OVCAR-3 ovarian
SF-539 CNS = tested on: SF-539 CNS
NCI-H23 lung = tested on: NCI-H23 lung
OVCAR-8 ovarian = tested on: OVCAR-8 ovarian
ACHN renal = tested on: ACHN renal
HCT-15 colon = tested on: HCT-15 colon
UO-31 renal = tested on: UO-31 renal
HL-60(TB) leukemia = tested on: HL-60(TB) leukemia
HOP-62 NSCLC = tested on: HOP-62 NSCLC
COLO 205 colon = tested on: COLO 205 colon
MOLT-4 leukemia = tested on: MOLT-4 leukemia
SK-MEL-28 melanoma = tested on: SK-MEL-28 melanoma
SK-OV-3 ovarian = tested on: SK-OV-3 ovarian
PC-3 prostate = tested on: PC-3 prostate
OVCAR-5 ovarian = tested on: OVCAR-5 ovarian
HOP-92 NSCLC = tested on: HOP-92 NSCLC
RXF 393 renal = tested on: RXF 393 renal
A498 renal = tested on: A498 renal
SNB-75 CNS = tested on: SNB-75 CNS
U251 CNS = tested on: U251 CNS

Cc1ccc(S(=O)(=O)N2CCN(S(=O)(=O)c3ccc(C)cc3)Cc3ccccc3C2)cc1
TGI (MCF7 breast): > 100 µM
TGI (HCT-116 colon): > 100 µM
TGI (SF-295 CNS): > 100 µM
TGI (CAKI-1 renal): > 100 µM
TGI (A549 NSCLC): > 100 µM
TGI (MALME-3M melanoma): > 100 µM
TGI (TK-10 renal): > 100 µM
TGI (NCI-H522 lung): 95 µM
TGI (IGROV1 ovarian): > 100 µM
TGI (SNB-19 CNS): > 100 µM
TGI (M14 melanoma): > 100 µM
TGI (BT-549 breast): > 100 µM
TGI (SK-MEL-5 melanoma): > 100 µM
TGI (OVCAR-4 ovarian): 90.8 µM
TGI (KM12 colon): > 100 µM
TGI (MDA-MB-231 breast): > 100 µM
TGI (RPMI-8226 leukemia): > 100 µM
TGI (NCI/ADR-RES ovarian): > 100 µM
TGI (UACC-62 melanoma): 36.7 µM
TGI (MDA-MB-435): > 100 µM
TGI (DU-145 prostate): > 100 µM
TGI (SN12C renal): > 100 µM
TGI (HS 578T breast): 96.5 µM
TGI (SK-MEL-2 melanoma): > 100 µM
TGI (UACC-257 melanoma): > 100 µM
TGI (NCI-H460 lung): > 100 µM
TGI (786-0 renal): > 100 µM
TGI (CCRF-CEM leukemia): > 100 µM
TGI (SW-620 colon): > 100 µM
TGI (NCI-H226 lung): > 100 µM
TGI (HT29 colon): > 100 µM
TGI (HCC-2998 colon): > 100 µM
TGI (T-47D breast): > 100 µM
TGI (SF-268 CNS): > 100 µM
TGI (LOX IMVI melanoma): > 100 µM
TGI (K-562 leukemia): > 100 µM
TGI (SR leukemia): > 100 µM
TGI (EKVX NSCLC): > 100 µM
TGI (OVCAR-3 ovarian): > 100 µM
TGI (SF-539 CNS): > 100 µM
TGI (NCI-H23 lung): > 100 µM
TGI (OVCAR-8 ovarian): > 100 µM
TGI (ACHN renal): > 100 µM
TGI (HCT-15 colon): > 100 µM
TGI (UO-31 renal): > 100 µM
TGI (HL-60(TB) leukemia): > 100 µM
TGI (HOP-62 NSCLC): 51.5 µM
TGI (COLO 205 colon): > 100 µM
TGI (MOLT-4 leukemia): > 100 µM
TGI (SK-MEL-28 melanoma): > 100 µM

COc1cc2nc(-c3cnc(N(C)C)nc3)nc(NC3CCN(Cc4ccccc4)CC3)c2cc1OC
GI50 (SK-OV-3 ovarian): 1.7 µM
TGI (SK-OV-3 ovarian): 3.08 µM
GI50 (HCT-116 colon): 0.316 µM
TGI (HCT-116 colon): 1.32 µM
GI50 (PC-3 prostate): 1.46 µM
TGI (PC-3 prostate): 3.09 µM
GI50 (SF-295 CNS): 1.54 µM
TGI (SF-295 CNS): 2.97 µM
GI50 (CAKI-1 renal): 1.44 µM
TGI (CAKI-1 renal): 2.81 µM
GI50 (OVCAR-5 ovarian): 1.78 µM
TGI (OVCAR-5 ovarian): 3.46 µM
GI50 (A549 NSCLC): 0.351 µM
TGI (A549 NSCLC): 1.79 µM
GI50 (MALME-3M melanoma): 1.66 µM
TGI (MALME-3M melanoma): 3.42 µM
GI50 (TK-10 renal): 1.63 µM
TGI (TK-10 renal): 3.08 µM
GI50 (IGROV1 ovarian): 1.73 µM
TGI (IGROV1 ovarian): 3.43 µM
GI50 (SNB-19 CNS): 1.2 µM
TGI (SNB-19 CNS): 3.1 µM
GI50 (M14 melanoma): 1.5 µM
TGI (M14 melanoma): 3.06 µM
GI50 (BT-549 breast): 1.71 µM
TGI (BT-549 breast): 3.43 µM
GI50 (HOP-92 NSCLC): 1.03 µM
TGI (HOP-92 NSCLC): 2.46 µM
GI50 (SK-MEL-5 melanoma): 1.58 µM
TGI (SK-MEL-5 melanoma): 2.95 µM
GI50 (KM12 colon): 1.72 µM
TGI (KM12 colon): 3.53 µM
GI50 (MDA-MB-231 breast): 1.57 µM
TGI (MDA-MB-231 breast): 3.4 µM
GI50 (RPMI-8226 leukemia): 1.22 µM
TGI (RPMI-8226 leukemia): 3.67 µM
GI50 (UACC-62 melanoma): 1.73 µM
TGI (UACC-62 melanoma): 3.29 µM
GI50 (MDA-MB-435): 1.38 µM
TGI (MDA-MB-435): 2.81 µM
GI50 (DU-145 prostate): 1.57 µM
TGI (DU-145 prostate): 3.05 µM
GI50 (SN12C renal): 1.77 µM
TGI (SN12C renal): 3.49 µM
GI50 (HS 578T breast): 1.71 µM
TGI (HS 578T breast): 3.99 µM
GI50 (SK-MEL-2 melanoma): 1.8 µM
TGI (SK-MEL-2 melanoma): 3.45 µM
GI50 (UACC-257 melanoma): 1.79 µM
TGI (UACC-257 melanoma): 3.66 µM
GI50 (NCI-H460 lung): 0.412 µM
TGI (NCI-H460 lung): 1.7 µM
GI50 (786-0 renal): 1.8 µM
TGI (786-0 renal): 3.81 µM
GI50 (CCRF-CEM leukemia): 0.707 µM
TGI (CCRF-CEM leukemia): 3.6 µM
GI50 (RXF 393 renal): 1.63 µM
TGI (RXF 393 renal): 3.49 µM
GI50 (SW-620 colon): 0.442 µM
TGI (SW-620 colon): 2 µM
GI50 (NCI-H226 lung): 1.73 µM
TGI (NCI-H226 lung): 3.92 µM
GI50 (HT29 colon): 1.08 µM
TGI (HT29 colon): 2.54 µM
GI50 (HCC-2998 colon): 1.79 µM
TGI (HCC-2998 colon): 3.25 µM
GI50 (T-47D breast): 1.81 µM
TGI (T-47D breast): 4.14 µM
GI50 (A498 renal): 1.57 µM
TGI (A498 renal): 2.94 µM
GI50 (SF-268 CNS): 1.73 µM
TGI (SF-268 CNS): 3.72 µM
GI50 (LOX IMVI melanoma): 1.52 µM
TGI (LOX IMVI melanoma): 3.2 µM
GI50 (K-562 leukemia): 0.369 µM
TGI (K-562 leukemia): 1.95 µM
GI50 (SR leukemia): 0.273 µM
TGI (SR leukemia): 0.938 µM
GI50 (EKVX NSCLC): 1.75 µM
TGI (EKVX NSCLC): 3.66 µM
GI50 (SNB-75 CNS): 1.43 µM
TGI (SNB-75 CNS): 2.86 µM
GI50 (OVCAR-3 ovarian): 1.69 µM
TGI (OVCAR-3 ovarian): 3.27 µM
GI50 (SF-539 CNS): 1.72 µM
TGI (SF-539 CNS): 3.25 µM
GI50 (NCI-H23 lung): 1.69 µM
TGI (NCI-H23 lung): 4.11 µM
GI50 (OVCAR-8 ovarian): 1.68 µM
TGI (OVCAR-8 ovarian): 3.97 µM
GI50 (ACHN renal): 0.927 µM
TGI (ACHN renal): 2.17 µM
GI50 (HCT-15 colon): 1.01 µM
TGI (HCT-15 colon): 2.39 µM
GI50 (UO-31 renal): 1.49 µM
TGI (UO-31 renal): 3.05 µM
GI50 (U251 CNS): 0.222 µM
TGI (U251 CNS): 0.573 µM
GI50 (HL-60(TB) leukemia): 1.51 µM
TGI (HL-60(TB) leukemia): 3.75 µM
GI50 (HOP-62 NSCLC): 1.69 µM
TGI (HOP-62 NSCLC): 3.48 µM
GI50 (COLO 205 colon): 0.637 µM
TGI (COLO 205 colon): 2.09 µM
GI50 (MOLT-4 leukemia): 2.28 µM
TGI (MOLT-4 leukemia): 6.36 µM
GI50 (SK-MEL-28 melanoma): 1.83 µM
TGI (SK-MEL-28 melanoma): 3.58 µM
